These results are taken from PMC12186697, “HypoxyStat, a small-molecule form of hypoxia therapy that increases oxygen-hemoglobin affinity” (Cell, 2025).

Each structure is given as a SMILES string.

This data set relates to 25+ potential off-targets. In words: Reaction Bio InVEST off-target panel. Conditions: duplicate; significance = 50% or greater inhibition in both replicates. The method, then:
This assay utilizes colorimetry to monitor the activity of acetylcholinesterase (AChE). Enzyme activity is measured by the conversion of acetylthiocholine to thiocholine, which is detected through an enhanced Ellman’s reaction. In each well, 20 μL of Assay Buffer (75.4 mM Na2HPO4, 24.6 mM NaH2PO4, pH 7.5) was added to wells designated as background/control (no enzyme). Subsequently, 20 μL of 0.2 U/mL AChE was added to the remaining wells. The reaction mixture was incubated at room temperature for 15 minutes on a shaker to allow for enzyme and drug interaction. To initiate the improved Ellman’s reaction, 30 μL of buffer containing 650 μM DTNB and 650 μM acetylthiocholine was added to each well. The color intensity, which is proportional to enzyme activity, was measured at 412 nm using an Envision 2105 plate reader.
The peroxidase activity is measured colorimetrically by monitoring the appearance of oxidized TMPD at 590 nm. […] Absorbance was then measured at 590 nm using an Envision 2105 plate reader (Revvity).
This assay uses fluorescence polarization to monitor binding to the hERG channel. […] Fluorescence polarization was measured at Ex/Em = 531 nm FP/595 nm P & S, and mP values were calculated.
The ADP-Glo™ assay is a luminescent method used to monitor ADP-producing biochemical reactions. […] Luminescence was then measured. […]

As to `O=Cc1ccccc1C(=O)N1CCCC[C@H]1COc1cccc(O)c1C=O` [HypoxyStat], the “off-target inhibition or binding, InVEST panel” value is listed as “All tests were negative”.
